{
  "source": "patent US9493542B2",
  "about": "“Methods of using ERBB2 conjugate peptides” (Augusta University Research Institute, Inc., priority 2013, dated 2016)",
  "molecules": {"B1": {"name": "PDZ domain of Erbin: Erbin PDZ domain, starts at amino acid 1318 of Erbin, expressed as Myc-tagged construct in HEK293 cells (protein)", "chain": "AKQEIRVRVEKDPELGFSISGGVGGRGNPFRPDDDGIFVTRVQPEGPASKLLQPGDKIIQANGYSFINIEHGQAVSLLKTFQNTVELIIVREV", "modifications": "Myc tag; PDZ domain", "notes": "Erbin PDZ domain, starts at amino acid 1318 of Erbin, expressed as Myc-tagged construct in HEK293 cells"}},
  "key": {"HSP90": {"system": "HSP90", "experiment": "HSP90 inhibition by 17-AAG: ErbB2 and Erbin levels and ErbB2 complex", "type": "cell-based", "text": "Erbin regulation of ErbB2 stability was investigated. […] Intriguingly, the effect of 17-AAG could not be blocked by Erbin overexpression (data not shown), indicating Erbin acts upstream or at level of HSP90. ErbB2, HSP90, and Erbin can form a ternary complex necessary for ErbB2 stability. HSP90 as well as Erbin was detectable in the complex of ErbB2 and Erbin interacted HSP90 (data not shown). […] Conversely, Erbin knockdown inhibited the HSP90-ErbB2 interaction (data not shown)."}, "Erbin-ErbB2 interaction": {"molecular_target": "T1, Erbin-ErbB2 interaction (Homo sapiens, UniProt Q96RT1)", "T1 construct": "HEK293 cells were transfected with Flag-ErbB2 alone or together with full length Erbin; expressed in transfected cells; host or cells: Transfected cells", "T1 sequence (Q96RT1 whole entry)": "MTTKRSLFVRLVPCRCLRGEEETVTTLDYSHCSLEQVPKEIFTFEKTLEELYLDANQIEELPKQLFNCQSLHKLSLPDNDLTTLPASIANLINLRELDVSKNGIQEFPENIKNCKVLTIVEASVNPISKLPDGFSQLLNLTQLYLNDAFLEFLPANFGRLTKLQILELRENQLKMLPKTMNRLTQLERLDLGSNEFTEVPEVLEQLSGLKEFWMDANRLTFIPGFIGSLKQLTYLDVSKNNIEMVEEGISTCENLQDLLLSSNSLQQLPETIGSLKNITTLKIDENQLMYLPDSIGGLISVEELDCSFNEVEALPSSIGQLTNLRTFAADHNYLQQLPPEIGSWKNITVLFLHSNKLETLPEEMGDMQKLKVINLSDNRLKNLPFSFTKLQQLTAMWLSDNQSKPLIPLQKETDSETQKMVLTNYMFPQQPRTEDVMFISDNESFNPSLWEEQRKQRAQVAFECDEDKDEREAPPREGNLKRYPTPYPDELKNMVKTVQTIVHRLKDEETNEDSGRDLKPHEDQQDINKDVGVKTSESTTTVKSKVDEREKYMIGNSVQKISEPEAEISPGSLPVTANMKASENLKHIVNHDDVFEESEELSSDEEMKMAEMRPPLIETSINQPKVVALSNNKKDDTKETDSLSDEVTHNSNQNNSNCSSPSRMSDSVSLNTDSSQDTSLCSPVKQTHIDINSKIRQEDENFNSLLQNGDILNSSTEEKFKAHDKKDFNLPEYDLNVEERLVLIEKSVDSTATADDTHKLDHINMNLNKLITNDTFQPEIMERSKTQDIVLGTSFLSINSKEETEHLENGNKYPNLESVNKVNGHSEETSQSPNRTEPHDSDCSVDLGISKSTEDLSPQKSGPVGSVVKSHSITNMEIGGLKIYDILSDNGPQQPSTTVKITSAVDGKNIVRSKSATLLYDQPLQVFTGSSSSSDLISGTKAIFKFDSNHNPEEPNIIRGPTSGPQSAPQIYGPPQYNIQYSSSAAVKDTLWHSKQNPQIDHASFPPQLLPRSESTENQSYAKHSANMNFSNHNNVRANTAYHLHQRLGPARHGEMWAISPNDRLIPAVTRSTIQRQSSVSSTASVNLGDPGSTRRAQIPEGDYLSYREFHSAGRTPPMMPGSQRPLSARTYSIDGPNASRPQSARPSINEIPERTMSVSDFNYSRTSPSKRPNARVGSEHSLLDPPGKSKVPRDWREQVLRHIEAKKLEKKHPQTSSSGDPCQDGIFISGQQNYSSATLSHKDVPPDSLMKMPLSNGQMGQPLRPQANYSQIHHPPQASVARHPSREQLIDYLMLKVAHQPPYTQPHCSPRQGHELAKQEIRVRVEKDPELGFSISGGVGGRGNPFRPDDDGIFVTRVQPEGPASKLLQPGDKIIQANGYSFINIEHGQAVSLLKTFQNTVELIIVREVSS", "experiment": "Co-immunoprecipitation of Flag-ErbB2 with Myc-Erbin from lysates incubated with peptide", "type": "binding", "conditions": "in vitro; lysates with Flag-ErbB2 or Myc-Erbin, anti-Myc precipitation; compared to control peptide", "text": "FIGS. 5A-5H show the requirement of the Erbin-ErbB2 interaction for ErbB2 stabilization and autophosphorylation and ErbB2-dependent proliferation of breast cancer cells. (A)-(B) Quantitative analysis of pErbB2 and ErbB2 levels in western blots showing decreased ErbB2 expression and autophosphorylation by Erbin-PDZ domain. HEK293 cells were transfected with Flag-ErbB2 with increasing doses of Myc-Erbin-PDZ. Cell lysates were blotted with antibodies against ErbB2, pErbB2 and Myc. (C) Quantitative analysis of western blot data showing the disruption of the Erbin-ErbB2 interaction by B2tail. Lysates of transfected cells expressing Flag-ErbB2 or Myc-Erbin were incubated with control peptide (Ctrl) or B2tail. The Erbin complex was precipitated using anti-Myc antibody and probed for ErbB2. n=3, *P<0.05, compared to Ctrl. […] Cells were treated with 20 μM TAT-Ctrl or TAT-B2tail peptide for 24 hours and analyzed by MTS assay. […]\nFor immunoprecipitation, cells were lysed in lysis buffer (50 mM Tris-HCl, pH 7.4, 150 mM NaCl, 1% NP-40, 0.5% Triton-X-100, 1 mM PMSF, 1 mM EDTA, 5 mM NaF, 2 mM Na3VO4, and protease inhibitor cocktails). […] Immunoreactive bands were visualized using enhanced chemiluminescence (Pierce), scanned with an Epson 1680 scanner, and analyzed with Image J. […]"}, "ErbB2 [1]": {"system": "ErbB2", "experiment": "ErbB2 stability and pErbB2 in SKBR3 cells after cycloheximide (Western blot)", "type": "cell-based", "design": "dose or concentration left out as unconfirmed", "conditions": "TAT-B2tail for 1 hour prior to CHX, compared to TAT-Ctrl"}, "BT474 cells": {"system": "BT474 cells", "experiment": "MTS proliferation assay, BT474 cells", "type": "cell-based, human", "conditions": "20 μM peptide, 24 hours", "text": "(§1) FIGS. 5A-5H show the requirement of the Erbin-ErbB2 interaction for ErbB2 stabilization and autophosphorylation and ErbB2-dependent proliferation of breast cancer cells. (A)-(B) Quantitative analysis of pErbB2 and ErbB2 levels in western blots showing decreased ErbB2 expression and autophosphorylation by Erbin-PDZ domain. HEK293 cells were transfected with Flag-ErbB2 with increasing doses of Myc-Erbin-PDZ. Cell lysates were blotted with antibodies against ErbB2, pErbB2 and Myc. (C) Quantitative analysis of western blot data showing the disruption of the Erbin-ErbB2 interaction by B2tail. Lysates of transfected cells expressing Flag-ErbB2 or Myc-Erbin were incubated with control peptide (Ctrl) or B2tail. The Erbin complex was precipitated using anti-Myc antibody and probed for ErbB2. n=3, *P<0.05, compared to Ctrl. […] SKBR3 cells were incubated with 20 μM TAT-Ctrl or TAT-B2tail, for 1 hour prior to analysis of ErbB2 stability. n=3, *P<0.05, **P<0.01, compared to TAT-Ctrl. […] Cells were treated with 20 μM TAT-Ctrl or TAT-B2tail peptide for 24 hours and analyzed by MTS assay. […] (F) PDZ deletion inhibited tumorigenesis in MMTV-neu mice on incipient congenic FVB background. […]\n(§2) Cell proliferation was measured by MTS assay, as described previously (Zhang, S., et al., Nature medicine, 17, 461-469, 2011). […] Optical density was measured at wavelength of 490 nm."}, "[2]": {"system": "Human breast BT474 cancer cells", "experiment": "BT474 breast tumor growth in fat pads of nude mice, intratumoral peptide injection", "type": "in vivo", "conditions": "25 μl 5 mM peptide injected into tumors twice a week, one month, versus TAT-Ctrl", "procedure": "FIG. 7 is a microscopy image of a breast cancer tumor treated with Tat-ErbB2tail. TAT-ErbB2tail peptide inhibits breast tumor growth in nude mice. Human breast BT474 cancer cells (100 μl, 3.0×10^5 cells in 50% Matri-gel) were injected into fat pads of both sides of female mice. Resulting tumors were injected 2 weeks later with control (TAT-ctrl, left) or B2tail (TAT-B2tail, right) peptide (25 u.l, 5 mM), twice a week. Shown were representative images before injection (A, A′) and one month after injection (B, B′).\nThe results identify the ErbB2-Erbin interaction as a therapeutic target for fighting ErbB2-positive breast cancers. To test this, B2tail was tested for the ability to inhibit tumor growth in mice. Human breast BT474 cancer cells (100 ul, 3.0×10^5 cells in 50% Matri-gel) were injected into fat pads of both sides of virgin, female mice. Resulting tumors were injected 2 weeks later with control (TAT-Ctrl) or B2tail (TAT-B2tail) peptide (25 μl, 5 mM), twice a week[[.]]."}, "SKBR3 cells": {"system": "SKBR3 cells", "experiment": "MTS proliferation assay, SKBR3 cells", "type": "cell-based", "conditions": "20 μM peptide, 24 hours", "text": "as §1, §2"}, "ErbB2 [3]": {"molecular_target": "T2, ErbB2 (Homo sapiens, UniProt P04626)", "T2 construct": "expressed in transfected cells; host or cells: HEK293", "experiment": "Coexpression of Erbin PDZ domain with Flag-ErbB2 in HEK293 cells (Western blot)", "type": "cell-based", "conditions": "Flag-ErbB2 with increasing doses of Myc-Erbin-PDZ", "text": "as §1, with “background. Erbin^ΔC/ΔC mice were backcrossed for 5 generations with FVB wild types and then crossed with FVB-congenic MMTV-neu.” for “background.”"}, "[4]": {"conditions": "17-AAG treatment (data not shown)"}},
  "data": [
    {"molecule": "C=CCNC1=C2C[C@@H](C)C[C@H](OC)[C@H](O)[C@@H](C)/C=C(\\C)[C@H](OC(N)=O)[C@@H](OC)/C=C\\C=C(/C)C(=O)NC(=CC1=O)C2=O", "note": "[17-AAG]", "values": [
      {"measurement": "ErbB2 degradation", "setting": "HSP90; [4]", "value": "resulted in ErbB2 degradation"},
      {"measurement": "Erbin levels", "setting": "HSP90; [4]", "value": "no effect"},
      {"measurement": "ErbB2 level after brief treatment", "setting": "HSP90; 17-AAG, 1 hour", "value": "without altering ErbB2 level"},
      {"measurement": "amount of Erbin in the ErbB2 complex", "setting": "HSP90; 17-AAG, 1 hour", "value": "reduced"}
    ]},
    {"molecule": "PTAENPEYLGLDVPV [B2tail]", "values": [
      {"measurement": "disruption of the Erbin-ErbB2 interaction", "setting": "Erbin-ErbB2 interaction", "value": "able to disrupt the Erbin-ErbB2 interaction"}
    ]},
    {"molecule": "YGRKKRRQRRR-G-PTAENPEYLGLDVPV [TAT-B2tail]", "values": [
      {"measurement": "ErbB2 reduction (stability) after CHX", "setting": "ErbB2 [1]", "value": "ErbB2 reduction was faster"},
      {"measurement": "pErbB2 levels", "setting": "ErbB2 [1]", "value": "pErbB2 levels were reduced"},
      {"measurement": "decrease of proliferation", "setting": "BT474 cells", "value": "~35", "unit": "%"},
      {"measurement": "size of breast tumors", "setting": "[2]", "value": "appeared to decrease"},
      {"measurement": "decrease of proliferation", "setting": "SKBR3 cells", "value": "about 40%"}
    ]},
    {"molecule": "B1", "values": [
      {"measurement": "ErbB2 phosphorylation (pErbB2)", "setting": "ErbB2 [3]", "value": "reduced"},
      {"measurement": "levels of ErbB2", "setting": "ErbB2 [3]", "value": "reduced"}
    ]}
  ]
}
